These results are taken from patent US20090075281A1, “MTBE GENES” (REGENTS OF THE UNIVERSITY OF CALIFORNIA, priority 2007, published 2009).

For data set [1], the system named is PM1. In words: MTBE degradation kinetics by PM1. Format: cell-based, Methylibium petroleiphilum PM1.
Data set [2] concerns M. petroleiphilum PM1. In words: PM1 growth in mineral salts medium (MSM) on a sole carbon source. Format: cell-based, Methylibium petroleiphilum PM1. The following applies: for doubling time of PM1 cells, t1/2: cells growing on the substance as sole carbon source; for concentration up to which PM1 is capable of growth: on MSM.
The subject of data set [3] is M. petroleiphilum PM1. Kind of data set: PM1 tolerance of MTBE on tryptic soy broth media. Format: cell-based, Methylibium petroleiphilum PM1.
Data set [4] deals with n-alkane grown GPo 1. The note with it: cited from earlier work.
For data set [5] the following is noted: used to calculate solution-phase concentration; cited from earlier work.

With `COC(C)(C)C` [MTBE, methyl tert-butyl ether], in data set [1], the “apparent half saturation constant for MTBE” value was 88 µM. Besides, in data set [2], the “doubling time of PM1 cells, t1/2” value was 15 h and the “concentration up to which PM1 is capable of growth” value is on record as “up to 1000 mg/L”. In data set [3], the tolerated concentration result is “up to 5,000 mg/L”. Besides, the “Ks values for MTBE” value in data set [4] is 20 to 40 mM. For the same compound, the “dimensionless Henry's constant” value in data set [5] is listed as 0.023.
As to `CCO` [ethanol], in data set [2], the “doubling time of PM1 cells, t1/2” value turned out to be 6.1 h and the “concentration up to which PM1 is capable of growth” value is reported as “up to 7.9 g/L”.
